Laboratory results taken from PubChem BioAssay AID1845198 (Molecular Pharmacology Branch, DTP, NCI, 2023).
“And” between values parts separate entries of the source, which are not always exact repeats. Identical values can stand only once.

Tested on: 425362-245-T-J1 tumor spheroids, viability % test/control
Assay: Anticancer human tumor 425362-245-T-J1 patient-derived melanoma cell line growth inhibition
Conditions: spheroids with HUVEC and MSC; for viability, T/C: stronger effect = lower value
In short: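 Complex tumor spheroids combined malignant cells with endothelial cells and mesenchymal stem cells. DNA-damaging drugs and DNA repair inhibitors were tested alone and in combination, at half-log dilutions down from clinical Cmax (top 10 microM if Cmax unknown), 0.25% DMSO final.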

[1] = curve of first compound, second compound 0.003 µM
[2] = curve of first compound, second compound 0.00949 µM
[3] = curve of first compound, second compound 0.03 µM
[4] = curve of first compound, second compound 0.0949 µM
[5] = curve of first compound, second compound 0.3 µM
[6] = second compound 0.003 µM, first compound 0.0316 µM
[7] = second compound 0.003 µM, first compound 0.1 µM
[8] = second compound 0.003 µM, first compound 0.316 µM
[9] = second compound 0.003 µM, first compound 1 µM
[10] = second compound 0.003 µM, first compound 3.16 µM
[11] = second compound 0.003 µM, first compound 10 µM
[12] = second compound 0.00949 µM, first compound 0.0316 µM
[13] = second compound 0.00949 µM, first compound 0.1 µM
[14] = second compound 0.00949 µM, first compound 0.316 µM
[15] = second compound 0.00949 µM, first compound 1 µM
[16] = second compound 0.00949 µM, first compound 3.16 µM
[17] = second compound 0.00949 µM, first compound 10 µM
[18] = second compound 0.03 µM, first compound 0.0316 µM
[19] = second compound 0.03 µM, first compound 0.1 µM
[20] = second compound 0.03 µM, first compound 0.316 µM
[21] = second compound 0.03 µM, first compound 1 µM
[22] = second compound 0.03 µM, first compound 3.16 µM
[23] = second compound 0.03 µM, first compound 10 µM
[24] = second compound 0.0949 µM, first compound 0.0316 µM
[25] = second compound 0.0949 µM, first compound 0.1 µM
[26] = second compound 0.0949 µM, first compound 0.316 µM
[27] = second compound 0.0949 µM, first compound 1 µM
[28] = second compound 0.0949 µM, first compound 3.16 µM
[29] = second compound 0.0949 µM, first compound 10 µM
[30] = second compound 0.3 µM, first compound 0.0316 µM
[31] = second compound 0.3 µM, first compound 0.1 µM
[32] = second compound 0.3 µM, first compound 0.316 µM
[33] = second compound 0.3 µM, first compound 1 µM
[34] = second compound 0.3 µM, first compound 3.16 µM
[35] = second compound 0.3 µM, first compound 10 µM
[36] = curve of first compound, second compound 30 pM
[37] = curve of first compound, second compound 94.9 pM
[38] = curve of first compound, second compound 0.0003 µM
[39] = curve of first compound, second compound 0.000949 µM
[40] = second compound 30 pM, first compound 0.0316 µM
[41] = second compound 30 pM, first compound 0.1 µM
[42] = second compound 30 pM, first compound 0.316 µM
[43] = second compound 30 pM, first compound 1 µM
[44] = second compound 30 pM, first compound 3.16 µM
[45] = second compound 30 pM, first compound 10 µM
[46] = second compound 94.9 pM, first compound 0.0316 µM
[47] = second compound 94.9 pM, first compound 0.1 µM
[48] = second compound 94.9 pM, first compound 0.316 µM
[49] = second compound 94.9 pM, first compound 1 µM
[50] = second compound 94.9 pM, first compound 3.16 µM
[51] = second compound 94.9 pM, first compound 10 µM
[52] = second compound 0.0003 µM, first compound 0.0316 µM
[53] = second compound 0.0003 µM, first compound 0.1 µM
[54] = second compound 0.0003 µM, first compound 0.316 µM
[55] = second compound 0.0003 µM, first compound 1 µM
[56] = second compound 0.0003 µM, first compound 3.16 µM
[57] = second compound 0.0003 µM, first compound 10 µM
[58] = second compound 0.000949 µM, first compound 0.0316 µM
[59] = second compound 0.000949 µM, first compound 0.1 µM
[60] = second compound 0.000949 µM, first compound 0.316 µM
[61] = second compound 0.000949 µM, first compound 1 µM
[62] = second compound 0.000949 µM, first compound 3.16 µM
[63] = second compound 0.000949 µM, first compound 10 µM
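Further: spheroids exposed to agents for 7 days.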
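Wherever viability, T/C is given: 100% = DMSO vehicle control viability.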

Structure (SMILES): CC1COCCN1c1cc(-c2ccnn2C)c2ccnc(-c3ccn[nH]3)c2n1 (configuration not stated) + CC[C@@]1(O)C(=O)OCc2c1cc1n(c2=O)Cc2cc3c(CN(C)C)c(O)ccc3nc2-1
- IC50 [1]: < 31.6 nM
- IC50 [2]: < 31.6 nM
- IC50 [3]: < 31.6 nM
- IC50 [4]: < 31.6 nM
- IC50 [5]: < 31.6 nM
- viability, T/C [6]: 37.4%
- viability, T/C [7]: 15.3%
- viability, T/C [8]: 6.14%
- viability, T/C [9]: 6.78%
- viability, T/C [10]: 6.36%
- viability, T/C [11]: 6.21%
- viability, T/C [12]: 14.2%
- viability, T/C [13]: 6.19%
- viability, T/C [14]: 4.31%
- viability, T/C [15]: 5.51%
- viability, T/C [16]: 5.57%
- viability, T/C [17]: 5.81%
- viability, T/C [18]: 4.2%
- viability, T/C [19]: 2.9%
- viability, T/C [20]: 3.2%
- viability, T/C [21]: 4.33%
- viability, T/C [22]: 5.76%
- viability, T/C [23]: 6.29%
- viability, T/C [24]: 2.84%
- viability, T/C [25]: 1.97%
- viability, T/C [26]: 2.32%
- viability, T/C [27]: 4.06%
- viability, T/C [28]: 4.81%
- viability, T/C [29]: 4.72%
- viability, T/C [30]: 1.36%
- viability, T/C [31]: 1.31%
- viability, T/C [32]: 1.46%
- viability, T/C [33]: 1.77%
- viability, T/C [34]: 2.51%
- viability, T/C [35]: 3.29%

Structure (SMILES): Cc1cc(C)c(CNC(=O)c2cc(-c3ccc(CN4CCOCC4)cc3)cc3c2cnn3C2CCCC2)c(=O)[nH]1 + COc1cc2c(cc1O)CCNC21CSC2c3c(OC(C)=O)c(C)c4c(c3C(COC1=O)N1C(O)C3Cc5cc(C)c(OC)c(O)c5C(C21)N3C)OCO4
- IC50 [36]: > 10000 nM
- IC50 [37]: > 10000 nM
- IC50 [38]: < 31.6 nM
- IC50 [39]: < 31.6 nM
- IC50 [1]: < 31.6 nM
- viability, T/C [40]: 81.9%
- viability, T/C [41]: 97.4%
- viability, T/C [42]: 97.5%
- viability, T/C [43]: 102%
- viability, T/C [44]: 85.7%
- viability, T/C [45]: 61.4%
- viability, T/C [46]: 84.3%
- viability, T/C [47]: 87.3%
- viability, T/C [48]: 92.9%
- viability, T/C [49]: 88.2%
- viability, T/C [50]: 81.9%
- viability, T/C [51]: 64.3%
- viability, T/C [52]: 44.9%
- viability, T/C [53]: 40%
- viability, T/C [54]: 59.9%
- viability, T/C [55]: 39.5%
- viability, T/C [56]: 34.4%
- viability, T/C [57]: 25.5%
- viability, T/C [58]: 0.31%
- viability, T/C [59]: 0.35%
- viability, T/C [60]: 0.34%
- viability, T/C [61]: 0.33%
- viability, T/C [62]: 0.21%
- viability, T/C [63]: 0.26%
- viability, T/C [6]: 0.3%
- viability, T/C [7]: 0.32%
- viability, T/C [8]: 0.3%
- viability, T/C [9]: 0.25%
- viability, T/C [10]: 0.25%
- viability, T/C [11]: 0.26%

Structure (SMILES): COc1cc(C)[nH]c(=O)c1CN1CCc2c(Cl)cc(C(OC)C3COC3)c(Cl)c2C1=O (configuration not stated) + COc1cc2c(cc1O)CCNC21CSC2c3c(OC(C)=O)c(C)c4c(c3C(COC1=O)N1C(O)C3Cc5cc(C)c(OC)c(O)c5C(C21)N3C)OCO4
- IC50 [36]: > 10000 nM
- IC50 [37]: > 10000 nM
- IC50 [38]: 362 nM
- IC50 [39]: < 31.6 nM
- IC50 [1]: < 31.6 nM
- viability, T/C [40]: 104%
- viability, T/C [41]: 104%
- viability, T/C [42]: 100%
- viability, T/C [43]: 99.2%
- viability, T/C [44]: 86.5%
- viability, T/C [45]: 92.5%
- viability, T/C [46]: 98.4%
- viability, T/C [47]: 93.9%
- viability, T/C [48]: 98.7%
- viability, T/C [49]: 95.1%
- viability, T/C [50]: 87%
- viability, T/C [51]: 74.2%
- viability, T/C [52]: 68%
- viability, T/C [53]: 48.1%
- viability, T/C [54]: 60.5%
- viability, T/C [55]: 40.5%
- viability, T/C [56]: 30.2%
- viability, T/C [57]: 23.1%
- viability, T/C [58]: 0.53%
- viability, T/C [59]: 0.46%
- viability, T/C [60]: 1.6%
- viability, T/C [61]: 0.35%
- viability, T/C [62]: 0.31%
- viability, T/C [63]: 0.31%
- viability, T/C [6]: 0.35%
- viability, T/C [7]: 0.38%
- viability, T/C [8]: 0.36%
- viability, T/C [9]: 0.31%
- viability, T/C [10]: 0.29%
- viability, T/C [11]: 0.35%

Structure (SMILES): CC(C)n1c(=O)n(C)c2cnc3cc(F)c(-c4ccc(OCCCN5CCCCC5)nc4)cc3c21 + CC[C@@]1(O)C(=O)OCc2c1cc1n(c2=O)Cc2cc3c(CN(C)C)c(O)ccc3nc2-1
- IC50 [1]: < 31.6 nM
- IC50 [2]: < 31.6 nM
- IC50 [3]: < 31.6 nM
- IC50 [4]: < 31.6 nM
- IC50 [5]: < 31.6 nM
- viability, T/C [6]: 14.6%
- viability, T/C [7]: 10.4%
- viability, T/C [8]: 7.7%
- viability, T/C [9]: 6.29%
- viability, T/C [10]: 8.79%
- viability, T/C [11]: 4.08%
- viability, T/C [12]: 6.58%
- viability, T/C [13]: 4.04%
- viability, T/C [14]: 3.89%
- viability, T/C [15]: 3.22%
- viability, T/C [16]: 3.36%
- viability, T/C [17]: 2.89%
- viability, T/C [18]: 5.67%
- viability, T/C [19]: 4.26%
- viability, T/C [20]: 4.37%
- viability, T/C [21]: 4.1%
- viability, T/C [22]: 5.65%
- viability, T/C [23]: 2.47%
- viability, T/C [24]: 7.71%
- viability, T/C [25]: 4.71%
- viability, T/C [26]: 4.3%
- viability, T/C [27]: 3.67%
- viability, T/C [28]: 6.89%
- viability, T/C [29]: 2.28%
- viability, T/C [30]: 2.08%
- viability, T/C [31]: 2.15%
- viability, T/C [32]: 1.84%
- viability, T/C [33]: 1.73%
- viability, T/C [34]: 1.54%
- viability, T/C [35]: 1.56%

Structure (SMILES): Cc1sc2c(c1C)C(c1ccc(Cl)cc1)=NC(CC(=O)Nc1ccc(O)cc1)c1nnc(C)n1-2 (configuration not stated)
- viability, T/C (compound 0.00949 µM): 97.8% and 84.1% and 108%
- viability, T/C (compound 0.03 µM): 91.2% and 76% and 93%
- viability, T/C (compound 0.0949 µM): 49.5% and 47.9% and 42.8%
- viability, T/C (compound 0.3 µM): 12.8% and 12% and 8.15%
- viability, T/C (compound 0.949 µM): 5.36% and 3.14% and 2.44%
- viability, T/C (compound 3 µM): 2.57% and 1.92% and 2.11%
- IC50 (curve of compound): 95.3 nM and 85.6 nM and 80.2 nM
